# Data taken from publication PMC10011554, “BET inhibitor trotabresib in heavily pretreated patients with solid tumors and diffuse large B-cell lymphomas” (Nature Communications, 2023).
# Several values for one entry are separate records, joined by “and”; a condition that tells them apart may be missing. Equal values may be shown once. Read-outs that look alike come from different tables or passages of the source.
# Experiments:
# OATP1B3 = tested on: OATP1B3; set-up: method as in Investigator's Brochure; conditions: OATP1B3, 30 µM, ref Investigator's Brochure; cited from earlier work
# CYP3A4/5, CYP2C8 = tested on: CYP3A4/5, CYP2C8; set-up: method as in Investigator's Brochure; conditions: ref Investigator's Brochure; cited from earlier work
# KARPAS-422 (GCB DLBCL) = tested on: KARPAS-422 (GCB DLBCL); set-up: method as in Report CC-90010-Pharm-1018; conditions: KARPAS-422, Experiment 1, ref Report CC-90010-Pharm-1018; read-out: absolute IC50, proliferation; cited from earlier work
# RC-K8 (ABC DLBCL) = tested on: RC-K8 (ABC DLBCL); set-up: method as in Report CC-90010-Pharm-1018; conditions: RC-K8, Experiment 1, ref Report CC-90010-Pharm-1018; read-out: absolute IC50, proliferation; cited from earlier work
# P-gp = tested on: P-gp; set-up: method as in Investigator's Brochure; conditions: ref Investigator's Brochure, read-out: IC50, transporter inhibition; cited from earlier work
# [1] = set-up: method as in PMID 32240793; conditions: cited from earlier work
# [2] = tested on: CYP1A2, CYP2A6, CYP2B6, CYP2E1 and CYP3A4/5; set-up: method as in Investigator's Brochure; conditions: CYP1A2, CYP2A6, CYP2B6, CYP2E1 and CYP3A4/5, ref Investigator's Brochure; cited from earlier work
# R/R DLBCL = test: Tumor response (International Working Group criteria), PFS and OS in phase I study, part B; type: in vivo, human
# Experimental: Secondary objectives were the preliminary efficacy of trotabresib in terms of clinical benefit rate (CR + PR + SD of ≥4 months’ duration), ORR (CR + PR), duration of response or SD, PFS, OS, and the PK of trotabresib. In addition, part C assessed the effects of food on the PK and the safety of trotabresib as a secondary objective. The pharmacodynamics of trotabresib were assessed as an exploratory objective.
# Response was assessed using Response Evaluation Criteria in Solid Tumors (RECIST) v1.1[54] in patients with solid tumors, International Working Group criteria in patients with DLBCL[55], and Response Assessment in Neuro-Oncology (RANO) criteria[56] in patients with CNS tumors (astrocytoma and glioblastoma). For patients with BCC, the response was assessed using a combination of radiological assessment of target lesions per RECIST v1.1, digital clinical photography assessed per World Health Organization (WHO) criteria, and punch biopsies to confirm CR. PK parameters assessed included Cmax, tmax, AUC, t½, apparent clearance (CL/F), and apparent volume of distribution (Vz/F).
# Bayesian logistic regression model based on dose-limiting toxicity was used to provide initial guidance for dose recommendations in the dose-escalation phase. The final decision was reached by considering the totality of safety, PK, and PD data. For binary efficacy endpoints, two-sided 95% Clopper–Pearson exact confidence intervals were provided. For time-to-event endpoints (PFS and OS), the median and 95% CI were estimated using the Kaplan–Meier method.
# CYP2D6 = tested on: CYP2D6; set-up: method as in Investigator's Brochure; conditions: CYP2D6, ref Investigator's Brochure; read-out: IC50, direct inhibition; cited from earlier work
# [3] = tested on: BCRP, MRP2, OAT1, OAT3, OATP1B1, OATP1B3 and OCT2; set-up: method as in Investigator's Brochure; conditions: MRP2, OAT1, OAT3, OATP1B1, OATP1B3 and OCT2, ref Investigator's Brochure; cited from earlier work
# [4] = set-up: method as in Unpublished data from Celgene Corporation; conditions: ref Unpublished data from Celgene Corporation, cited from earlier work
# [5] = tested on: 14 PDX-derived GBM tumor models; set-up: method as in Investigator's Brochure; conditions: ref Investigator's Brochure, cited from earlier work
# [6] = set-up: method as in PMID 32240793; conditions: part A preliminary results; cited from earlier work
# [7] = set-up: method as in Investigator's Brochure; conditions: rats, IV, non-radiolabeled, ref Investigator's Brochure; cited from earlier work
# [8] = tested on: MYC gene expression in Raji Burkitt's lymphoma cells; set-up: method as in Investigator's Brochure; conditions: ref Investigator's Brochure, read-out: mean IC50, inhibition of MYC gene expression; cited from earlier work
# CYP2C8 = tested on: CYP2C8; set-up: method as in Investigator's Brochure; conditions: CYP2C8, ref Investigator's Brochure; read-out: IC50, direct inhibition; cited from earlier work
# CCR1 mRNA = test: Blood CCR1 mRNA levels (QuantiGene, normalized to PPIB); type: in vivo, human; conditions: for decrease of blood PD marker CCR1 achieved: part A
# Experimental: Changes in peripheral CCR1 mRNA levels, expression of which is modulated following BET inhibition, were assessed using QuantiGene technology (Thermo Fisher Scientific) and normalized to the expression of a control gene, peptidylprolyl isomerase B (PPIB). The data were presented as a percentage of pre-dose mRNA levels.
# [9] = part B R/R DLBCL (N = 23), treated population
smiles,measurement,setting,value
Cn1cc(-c2cc(S(C)(=O)=O)ccc2OCC2CC2)c2ccccc2c1=O [trotabresib],inhibition of mediated transport,OATP1B3,58.3%
same,enzymes mediating metabolism,"CYP3A4/5, CYP2C8",mediated primarily by CYP3A4/5 with minor involvement of CYP2C8
same,IC50,KARPAS-422 (GCB DLBCL),320 nM
same,IC50,RC-K8 (ABC DLBCL),130 nM
same,IC50,P-gp,2000 nM
same,alternative RP2D,[1]; 3 days on/11 days off,30 mg/day
same,recommended phase II dose (RP2D),[1]; 4 days on/24 days off,45 mg/day
same,direct inhibitory effect,[2],little to no direct inhibitory effect
same,reduction in target lesion size,"R/R DLBCL; one patient with GCB immunophenotype R/R DLBCL, after two cycles",57%
same,Median OS (95% CI),R/R DLBCL; part B DLBCL (n = 23),159 days and 159 (101–NE) days
same,Median PFS (95% CI),R/R DLBCL; part B DLBCL (n = 23),54 (49–65) days
same,OS range,R/R DLBCL; part B DLBCL (n = 23),44 to 423 days
same,PFS range,R/R DLBCL; part B DLBCL (n = 23),12 to 423 days
same,best response CR,R/R DLBCL; part B R/R DLBCL (N = 23),8.7%
same,best response PD,R/R DLBCL; part B R/R DLBCL (N = 23),43.5%
same,best response PR,R/R DLBCL; part B R/R DLBCL (N = 23),4.3%
same,best response SD,R/R DLBCL; part B R/R DLBCL (N = 23),8.7%
same,CBR,R/R DLBCL; [9],17.4%
same,ORR,R/R DLBCL; [9],13.0%
same,total treatment duration,"R/R DLBCL; part B, one patient with transformed DLBCL, ongoing at cycle 17",1.6 years
same,IC50,CYP2D6,≥ 13900 nM
same,transporter substrate status,[3],not a substrate
same,weight loss,"[4]; GBM15, 15 mg/kg/dose group",-6.6%
same,weight loss,"[4]; GBM15, 25 mg/kg/dose group",-3.7%
same,weight loss,"[4]; GBM15, 37.5 mg/kg/dose group",-3.1%
same,IC50,"[5]; read-out: overall mean IC50, colony formation",620 ± 130 nM
same,activity range of IC50 values,[5],18 fold
same,oral bioavailability,[6],high oral bioavailability
same,t1/2,[6],~ 60 h
same,"dose excreted intact in bile or urine, average",[7],0.9 % of the dose
same,IC50,[8],60 nM
same,IC50,CYP2C8,≥ 13900 nM
same,decrease of blood PD marker CCR1 achieved,"CCR1 mRNA; 30 mg 3-days-on/11-days off, 4 hours post last dose in the first cycle",≥ 50%
same,decrease of blood PD marker CCR1 achieved,CCR1 mRNA; 45 mg 4-days-on/24-days-off,≥ 50%
same,"percentage of baseline CCR1 expression, individual patients","CCR1 mRNA; part B, 30 mg/day (n = 2), 4 h after last dose",13.4467 % of baseline and 130.198 % of baseline
same,"percentage of baseline CCR1 expression, individual patients","CCR1 mRNA; part B, 30 mg/day (n = 3), 4 h after first dose",50.27 % of baseline and 55.3963 % of baseline and 80.5103 % of baseline
same,Mean CCR1 mRNA level,"CCR1 mRNA; part B, 45 mg/day 4 days on/24 days off, 4 h after the first and last dose",< 50 % of baseline
same,mean reduction of blood CCR1 mRNA,"CCR1 mRNA; part B, 45 mg/day 4 days on/24 days off, after the first and last dose",> 50%
same,"percentage of baseline CCR1 expression, individual patients Pt 1-16","CCR1 mRNA; part B, 45 mg/day 4 days on/24 days off, time 2 h",30.5369 % of baseline and 28.4986 % of baseline and 30.4914 % of baseline and 56.7025 % of baseline and 34.2349 % of baseline and 126.292 % of baseline and 41.5689 % of baseline and 39.5781 % of baseline and 38.6952 % of baseline
same,"percentage of baseline CCR1 expression, individual patients Pt 1-16","CCR1 mRNA; part B, 45 mg/day 4 days on/24 days off, time 72 h",11.6428 % of baseline and 66.6434 % of baseline and 61.1466 % of baseline and 71.42 % of baseline and 107.064 % of baseline and 92.4076 % of baseline and 206.706 % of baseline and 11.5951 % of baseline and 29.4034 % of baseline and 32.6074 % of baseline and 46.3108 % of baseline and 35.5399 % of baseline and 51.254 % of baseline and 16.3541 % of baseline and 56.3318 % of baseline and 47.472 % of baseline
same,"percentage of baseline CCR1 expression, individual patients Pt 1-16","CCR1 mRNA; part B, 45 mg/day 4 days on/24 days off, time 74 h",7.664 % of baseline and 43.5783 % of baseline and 101.397 % of baseline and 68.6148 % of baseline and 66.624 % of baseline and 90.5744 % of baseline and 6.3621 % of baseline and 11.918 % of baseline and 23.0451 % of baseline and 38.3287 % of baseline and 18.1003 % of baseline and 30.2477 % of baseline and 30.0183 % of baseline and 30.3305 % of baseline
same,"percentage of baseline CCR1 expression, individual patients Pt 1-16","CCR1 mRNA; part B, 45 mg/day 4 days on/24 days off, time 76 h",7.416 % of baseline and 22.7163 % of baseline and 45.8741 % of baseline and 84.9845 % of baseline and 62.1329 % of baseline and 102.299 % of baseline and 97.8745 % of baseline and 12.7872 % of baseline and 26.7231 % of baseline and 38.7251 % of baseline and 59.7173 % of baseline and 32.5849 % of baseline and 15.5412 % of baseline and 32.2909 % of baseline and 34.1593 % of baseline
same,"percentage of baseline CCR1 expression, individual patients Pt 1-16","CCR1 mRNA; part B, 45 mg/day 4 days on/24 days off, time 96 h",18.2209 % of baseline and 101.061 % of baseline and 57.0673 % of baseline and 66.6995 % of baseline and 126.329 % of baseline and 107.431 % of baseline and 11.7759 % of baseline and 20.7746 % of baseline and 24.4742 % of baseline and 39.7466 % of baseline and 30.1049 % of baseline and 35.253 % of baseline and 12.8666 % of baseline and 60.4272 % of baseline and 48.4025 % of baseline
same,"percentage of baseline CCR1 expression, individual patients Pt 1-16","CCR1 mRNA; part B, 45 mg/day 4 days on/24 days off, time 168 h",1110.93 % of baseline and 46.7528 % of baseline and 137.362 % of baseline and 245.348 % of baseline and 178.841 % of baseline and 306.585 % of baseline and 142.224 % of baseline and 191.429 % of baseline and 72.8857 % of baseline and 69.6406 % of baseline and 101.659 % of baseline and 69.3899 % of baseline and 160.385 % of baseline and 78.4141 % of baseline and 220.588 % of baseline
same,"percentage of baseline CCR1 expression, individual patients Pt 1-16","CCR1 mRNA; part B, 45 mg/day 4 days on/24 days off, time 192 h",44.5123 % of baseline and 125.959 % of baseline and 259.615 % of baseline and 202.75 % of baseline and 242.493 % of baseline and 146.374 % of baseline and 154.035 % of baseline and 288.7 % of baseline and 109.004 % of baseline and 72.27 % of baseline and 78.3761 % of baseline and 79.513 % of baseline and 168.811 % of baseline and 147.701 % of baseline and 179.93 % of baseline
same,"percentage of baseline CCR1 expression, individual patients","CCR1 mRNA; part B, 45 mg/day (n = 15), 4 h after last dose",26.7231 % of baseline and 32.2909 % of baseline and 32.5849 % of baseline and 34.1593 % of baseline and 38.7251 % of baseline and 45.8741 % of baseline and 59.7173 % of baseline and 62.1329 % of baseline and 84.9845 % of baseline and 97.8745 % of baseline and 102.299 % of baseline and 7.416 % of baseline and 12.7872 % of baseline and 15.5412 % of baseline and 22.7163 % of baseline
same,"percentage of baseline CCR1 expression, individual patients","CCR1 mRNA; part B, 45 mg/day (n = 16), 4 h after first dose",31.799 % of baseline and 32.0053 % of baseline and 36.1061 % of baseline and 40.3422 % of baseline and 46.5342 % of baseline and 46.6648 % of baseline and 52.9092 % of baseline and 58.7813 % of baseline and 59.2329 % of baseline and 60.0574 % of baseline and 60.1703 % of baseline and 87.3968 % of baseline and 24.9251 % of baseline and 27.9014 % of baseline and 28.1552 % of baseline and 31.5602 % of baseline
